Article PMC4374867, “The Novel Tubulin Polymerization Inhibitor MHPT Exhibits Selective Anti-Tumor Activity against Rhabdomyosarcoma In Vitro and In Vivo” (PLoS ONE, 2015)

Tested on: T1, tubulin (alpha- and beta-tubulin)
T1 construct: with alpha-/beta-tubulin heterodimer
Test: cell-free fluorescence-based tubulin polymerization assay (Cytoskeleton BK011P)
Assay type: biochemical, Bos taurus

IC50: 6.28 µM
Structure (SMILES): COc1cccc(C=C2SC(=Nc3ccc(O)cc3)NC2=O)c1 [MHPT, 2-((4-hydroxyphenyl)imino)-5-(3-methoxybenzylidene)thiazolidin-4-one]
